Calls of active or inactive are those of the source. The calls are words filed in the database; no cut-off is given here.
Tests used:
[1] = Cytotoxicity against human THP-1 cells assessed as cellular proliferation inhibition measured after 48 hrs by MTT assay; format: toxicity, cell-based
[2] = tested on: Rattus norvegicus; test: Anti-inflammatory activity against complete Freund's adjuvant (CFA)-induced arthritis rat model assessed as synovial hyperplasia in rat synovium from the left rear ankle at 10 mg/kg, ip treated after 17 days of CFA challenge measured after 18 days (day 17 to 34) by H and E staining based assay relative to model group; format: functional, organism-based; conditions: time 18.0 day
[3] = AUC (0 to t) in Sprague-Dawley rat at 20 mg/kg, IG measured upto 1440 mins by LC-MS/MS analysis; format: ADME, organism-based; conditions: in vivo, po
[4] = MRT (0 to infinity) in Sprague-Dawley rat at 20 mg/kg, ip measured upto 720 mins by LC-MS/MS analysis; format: ADME, organism-based; conditions: in vivo
[5] = Cmax in Sprague-Dawley rat at 20 mg/kg, IG measured upto 1440 mins by LC-MS/MS analysis; format: ADME, organism-based; conditions: in vivo, po
[6] = MRT (0 to infinity) in Sprague-Dawley rat at 20 mg/kg, IG measured upto 1440 mins by LC-MS/MS analysis; format: ADME, organism-based; conditions: in vivo, po
[7] = AUC (0 to infinity) in Sprague-Dawley rat at 20 mg/kg, ip measured upto 720 mins by LC-MS/MS analysis; format: ADME, organism-based; conditions: in vivo, 12 h
[8] = MRT (0 to t) in Sprague-Dawley rat at 20 mg/kg, IG measured upto 1440 mins by LC-MS/MS analysis; format: ADME, organism-based; conditions: in vivo, po
[9] = Half life in Sprague-Dawley rat at 20 mg/kg, IG measured upto 1440 mins by LC-MS/MS analysis; format: ADME, organism-based; conditions: in vivo, po
[10] = AUC (0 to t) in Sprague-Dawley rat at 20 mg/kg, ip measured upto 720 mins by LC-MS/MS analysis; format: ADME, organism-based; conditions: in vivo
[11] = MRT (0 to t) in Sprague-Dawley rat at 20 mg/kg, ip measured upto 720 mins by LC-MS/MS analysis; format: ADME, organism-based; conditions: in vivo
[12] = Bioavailability in Sprague-Dawley rat at 20 mg/kg, ip measured upto 720 mins by LC-MS/MS analysis; format: ADME, organism-based; conditions: in vivo
[13] = Half life in Sprague-Dawley rat at 20 mg/kg, ip measured upto 720 mins by LC-MS/MS analysis; format: ADME, organism-based; conditions: in vivo
[14] = Apparent clearance during terminal phase in Sprague-Dawley rat at 20 mg/kg, IG measured upto 1440 mins by LC-MS/MS analysis; format: ADME, organism-based; conditions: in vivo, po
[15] = Apparent volume of distribution during terminal phase in Sprague-Dawley rat at 20 mg/kg, IG measured upto 1440 mins by LC-MS/MS analysis; format: ADME, organism-based; conditions: in vivo, po, read-out: Vz/F
[16] = Apparent volume of distribution during terminal phase in Sprague-Dawley rat at 20 mg/kg, ip measured upto 720 mins by LC-MS/MS analysis; format: ADME, organism-based; conditions: in vivo, read-out: Vz/F
[17] = Tmax in Sprague-Dawley rat at 20 mg/kg, IG measured upto 1440 mins by LC-MS/MS analysis; format: ADME, organism-based; conditions: in vivo, po
[18] = AUC (0 to infinity) in Sprague-Dawley rat at 20 mg/kg, IG measured upto 1440 mins by LC-MS/MS analysis; format: ADME, organism-based; conditions: in vivo, po
[19] = tested on: THP-M; test: Inhibition of NLRP3 and […] protein-protein interaction in human THP-M cells assessed as suppression activation of NLRP3 inflammasome by affecting ASC oligomerization at 10 to 50 uM pretreated for 24 hrs followed by stimulated with LPS for 3 hrs and ATP for 1 hr by co-IP analysis; format: cell-based; conditions: dose 10-50 µM, time 28.0 hrs

SMILES | IC50 at 48 h [1] [µM] | also measured
COCCCNC(=O)c1ccc(Cn2c(SCc3ccccc3)nc3ccncc32)cc1 | > 100 | 
COCCCNC(=O)c1ccc(Cn2c(SCc3ccncc3)nc3ccncc32)cc1 | > 100 | 
CCC(=O)Nc1ccc(Cn2c(SCC3CCCCC3)nc3ccncc32)cc1 | > 100 | 
COCCCNC(=O)c1ccc(Cn2c(SCc3ccccc3F)nc3ccncc32)cc1 | 53.3 | 
COCCCNC(=O)c1ccc(Cn2c(SCC=C(C)C)nc3ccncc32)cc1 | > 100 | 
COCCCNC(=O)c1ccc(Cn2c(SCc3ccc(OC)cc3)nc3ccncc32)cc1 | > 100 | 
COC(=O)c1ccc(Cn2c(SCC3CCCCC3)nc3ccncc32)cc1 | > 100 | 
COCCCNC(=O)c1ccc(Cn2c(SCc3ccc(Br)cc3)nc3ccncc32)cc1 | 90.3 | 
COCCCNC(=O)c1ccc(Cn2c(SCc3cccc(F)c3)nc3ccncc32)cc1 | > 100 | 
COCCCNC(=O)c1ccc(Cn2c(SCc3ccc([N+](=O)[O-])cc3)nc3ccncc32)cc1 | > 100 | 
COCCCNC(=O)c1ccc(Cn2c(SCc3cc(C)cc(C)c3)nc3ccncc32)cc1 | > 100 | 
CCOCCCNC(=O)c1ccc(CSc2nc3ccncc3n2Cc2cccc(OC)c2)cc1 | > 100 | 
CC(C)(O)c1coc(S(=O)(=O)NC(=O)Nc2c3c(cc4c2CCC4)CCC3)c1 | > 100 | Activity [2]: Active
O=C(c1ccc(Cn2c(SCC3CCCCC3)nc3ccncc32)cc1)N1CCNCC1 | > 100 | AUC(0-t) at 24 h [3]: 733 ng·h/mL; MRT inf [4]: 1.32 h; Cmax [5]: 280 ng/mL; MRT inf [6]: 4.86 h; AUC [7]: 103322 ng·min/mL; MRT last at 24 h [8]: 2.89 h; half-life [9]: 3.93 h; AUC(0-t) at 12 h [10]: 1320 ng·h/mL; MRT last at 12 h [11]: 0.615 h; bioavailability [12]: 13.2%; half-life [13]: 1.11 h; CL/F [14]: 500 mL/min/kg; Vd/F [15]: 193 L/kg; Vd/F [16]: 4.96 L/kg; Tmax [17]: 0.245 h; AUC(0-inf) [18]: 906 ng·h/mL
COCCCNC(=O)c1ccc(Cn2c(SCc3cccnc3)nc3ccncc32)cc1 | > 100 | 
CCCCNC(=O)c1ccc(Cn2c(SCC3CCCCC3)nc3ccncc32)cc1 | > 100 | 
O=C(c1ccc(Cn2c(SCC3CCCCC3)nc3ccncc32)cc1)N1CCOCC1 | > 100 | 
COCCCNC(=O)c1ccc(Cn2c(SCc3ccc(F)cc3)nc3ccncc32)cc1 | > 100 | 
COCCCNC(=O)c1ccc(Cn2c(SCc3ccccn3)nc3ccncc32)cc1 | > 100 | 
COCCCNC(=O)c1ccc(Cn2c(SCc3cc(F)cc(F)c3)nc3ccncc32)cc1 | > 100 | 
CC(C)OCCCn1c(=O)c2ccccc2n2c(CCC(=O)NCc3ccccc3)nnc12 | 65.5 | 
CCCCCNC(=O)c1ccc(Cn2c(SCC3CCCCC3)nc3ccncc32)cc1 | 87.5 | 
CCCNC(=O)CCCCn1c(=O)c2ccccc2n(CC(=O)NCc2ccc(F)cc2)c1=O | > 100 | 
COCCCNC(=O)c1ccc(Cn2c(SCc3cccc(C)c3)nc3ccncc32)cc1 | > 100 | 
COCCCNC(=O)c1ccc(Cn2c(SCc3ccc(C)cc3)nc3ccncc32)cc1 | > 100 | 
CCNC(=O)c1ccc(Cn2c(SCC3CCCCC3)nc3ccncc32)cc1 | > 100 | 
COc1ccc(N2CCN(CCCNC(=O)c3nnc(Cc4ccc(F)cc4)o3)CC2)cc1 | > 100 | 

SMILES | IC50 at 48 h [1] [µM] | also measured
CCOCCCNC(=O)c1ccc(CSc2nc3ccncc3n2Cc2cccc(F)c2)cc1 | > 100 | 
CNC(=O)c1ccc(Cn2c(SCC3CCCCC3)nc3ccncc32)cc1 | > 100 | 
CCOC(=O)c1ccc(Cn2c(SCC3CCCCC3)nc3ccncc32)cc1 | > 100 | inhibition [19]: Active
CNC(=O)CCn1c(SCC2CCCCC2)nc2ccncc21 | > 100 | 
COCCCNC(=O)c1ccc(Cn2c(SCC3CCC3)nc3ccncc32)cc1 | > 100 | 
COCCCNC(=O)c1ccc(Cn2c(SCC3CC3)nc3ccncc32)cc1 | > 100 | 
O=C(c1ccc(Cn2c(SCC3CCCCC3)nc3ccncc32)cc1)N1CCCC1 | > 100 | 
CC(C)c1ccc(Cn2c(SCC3CCCCC3)nc3ccncc32)cc1 | 77.3 | 
CCOc1ccc(CCNC(=O)Cn2nc(-c3ccc(C)c(S(=O)(=O)N4CCCCC4)c3)c3ccccc3c2=O)cc1OCC | > 100 | 
CCCc1ccc(Cn2c(SCC3CCCCC3)nc3ccncc32)cc1 | 87.6 | 
CC(C)(C)c1ccc(Cn2c(SCC3CCCCC3)nc3ccncc32)cc1 | 93.5 | 
COCCCNC(=O)c1ccc(Cn2c(SCc3ccc(C(F)(F)F)cc3)nc3ccncc32)cc1 | 51.1 | 
COCCCNC(=O)c1ccc(Cn2c(SCc3ccc(F)nc3)nc3ccncc32)cc1 | > 100 | 
COC(=O)CCCCn1c(SCC2CCCCC2)nc2ccncc21 | > 100 | 
CCCC(=O)Nc1ccc(Cn2c(SCC3CCCCC3)nc3ccncc32)cc1 | > 100 | 
COCCCNC(=O)c1ccc(Cn2c(SCc3cccc([N+](=O)[O-])c3)nc3ccncc32)cc1 | > 100 | 
COCCCNC(=O)c1ccc(Cn2c(SCc3ccc(C#N)cc3)nc3ccncc32)cc1 | > 100 | 
CC(=O)Nc1ccc(Cn2c(SCC3CCCCC3)nc3ccncc32)cc1 | > 100 | 
O=C(c1ccccc1)c1ccc(Cn2c(SCC3CCCCC3)nc3ccncc32)cc1 | 72.4 | 
COc1ccc(C2=NN(C(=O)CSc3nnc(CNC(=O)COc4ccccc4)n3CCc3ccccc3)C(c3ccc(OC)cc3)C2)cc1 (configuration not stated) | > 100 | 
COCCCNC(=O)c1ccc(Cn2c(SCC3CCCC3)nc3ccncc32)cc1 | > 100 | 
COCCCNC(=O)c1ccc(Cn2c(SCc3ccc(Cl)cc3)nc3ccncc32)cc1 | 23 | 
NC(=O)c1ccc(Cn2c(SCC3CCCCC3)nc3ccncc32)cc1 | > 100 | 
COc1ccc(-c2[nH]c3ccccc3c2SCCNC(=O)c2ccc(S(=O)(=O)N3CCOCC3)cc2)cc1 | > 100 | 
COCCNC(=O)c1ccc(Cn2c(SCC3CCCCC3)nc3ccncc32)cc1 | 96.3 | 
CCCNC(=O)c1ccc(Cn2c(SCC3CCCCC3)nc3ccncc32)cc1 | > 100 | 
COc1ccc(N2CCN(CCCNC(=O)COCc3cc(-c4ccc5c(c4)OCO5)on3)CC2)cc1 | 85.2 | 
